Patent US20050260158A1, “Human stem cell materials and methods” (priority 2003, published 2005)

What was measured:
Assay type in all cases: cell-based, human
MDSC cultures [1] = test: LPS-induced macrophage differentiation of MDSC cultures; details: 1 μg/ml LPS; 12-14-day-old M-CSF-treated cultures with 80-90% MDSCs
Source text: This transformation was verified by characterization of morphology, lipid staining, increased HLA-DR, HLA-DQ, IL-10 and TNF-α immunostaining (FIG. 3), and cytotoxicity (Table 1).

MDSC cultures [2] = test: Pancreatic islet β-cell-like  differentiation of MDSC cultures, immunostaining for β-cell markers; details: high glucose, absence of serum
Procedure: Cells. MDSCs cultured in 8-well Lab-Tek chamber slides (Nunc, Naperville, Ill.)) were treated for 3-5 days with 1 mg/ml LPS (Sigma) or […] CD40Ab (R&D System, Minneapolis, Minn.)) in the presence of low (5 mM) or high (25 mM) glucose (Sigma). Human pancreatic islets were digested as described in Ricordi, C., et al., Diabetes 38 Suppl 1, 140-142 (1989) and purified on COBE 2991 (Mediatech, Herndon, Va.) using a continuous Ficoll gradient. Immunostaining. Tissue slides (Biochain, Hayward, Calif.) were immunostained after deparaffinization with AutoDewaxer (Phoenix Biotechnologies, Huntsville, Ala.). The secondary antibodies were peroxidase-, FITC-, or Texas Red® dye-conjugated affiniPure anti-mouse, donkey, goat or Guinea pig antibodies (Jackson ImmunoResearch Laboratories, West Grove, Pa.). […] Isotype-matched antibodies served as controls. Human macrophages served as positive controls. […] Immunostaining for the different antigens and insulin immuno-quantification was done as previously described (Zhao, Y., et al., Proc. Natl. Acad. Sci. USA, 100: 2426-2431 (2003). Non-specific esterase staining was performed using a-Naphthyl Acetate Esterase kit (Sigma).

MDSC cultures [3] = test: Transmission electron microscopy of treated MDSC cultures; details: treated MDSC cultures in high glucose
Procedure: Transmission electron microscopy. Untreated or treated MDSC cultures were incubated in high glucose in 8-well Permanox® Slides (Nunc, Naperville, Ill.). Freshly human isolated islets were fixed for 2 h with 2% glutaraldehyde in cacodylate buffer at room temperature and the further sample preparation was done as described in Zhu, X., et al., Proc. Natl. Acad. Sci. (USA), 99:10299-10304 (2002). Fifty randomly selected cells were photographed using the Philips CM-120 transmission electron microscope.

insulin gene = test: Nested RT-PCR for insulin in MDSC cultures; details: treated MDSC cultures; markedly increased in high glucose
Procedure: Nested RT-PCR. Nested RT-PCR was performed using the QIAGEN® OneStep RT-PCR kit (Qiagen, Valencia, Calif.), with the following: insulin forward-[…] (SEQ ID NO: 1) (PCR product size 324 bp), insulin forward nested-[…] (SEQ ID NO: 2) (PCR product size 266 bp), insulin reverse-[…] (SEQ ID NO: 3), glyceraldehyde phosphate dehydrogenase (GAPDH) forward-[…] (SEQ ID NO: 4) (PCR product size 541 bp), GAPDH forward nested-[…] (SEQ ID NO: 5) (PCR poduct size 282 bp), GAPDH reverse-[…] (SEQ ID NO: 6). Both PCR rounds were done using 40 cycles consisting of 30 seconds at 94° C., 1 minute at 58° C., and 1 minute at 72° C. First round PCR products were diluted 1:100 prior to the nested PCR. Final PCR products were electrophoresed through 1.7% agarose with ethidiumbromide and visualized by UV.

MDSC cultures [4] = test: Insulin release from MDSC cultures (insulin ELISA); details: MDSC cultures treated 4-5 days
Procedure: Insulin release. MDSC cultures incubated in 24-well tissue culture plates (Costar, Cambridge, Mass.) at 70-80% confluence were treated for 4-5 days with LPS or CD40Ab. Insulin secretion was assessed as previously described in Schuit, F., et al., J. Biol. Chem. 272:18572-18579 (1997), using an insulin ELISA kit (Linco Research, MO). When required, the untreated or treated cultures were also pre-incubated for 30 min with […] diazoxide, 10 mM tolbudamide, or […] IBMX.

lipopolysaccharide [LPS]
macrophage differentiation of MDSCs (MDSC cultures [1]): transformed the MDSCs into standard macrophages
insulin level by quantitative immunostaining (MDSC cultures [2]): about half the level of islet beta-cells
granules seen by transmission electron microscopy (MDSC cultures [3]): many halo granules of different sizes
insulin gene expression (insulin gene): express the insulin gene
insulin release by ELISA (MDSC cultures [4]): glucose-dependent insulin release
